From US9840508B2, “N-acyl-(3-substituted)-(8-methyl)-5,6-dihydro-[1,2,4]triazolo[4,3-a] pyrazines as selective NK-3 receptor antagonists, pharmaceutical composition, methods for use in NK-3 receptor-mediated disorders” (EUROSCREEN SA, priority 2013, dated 2017)
Like-named read-outs stand apart in the source and are kept apart here.

What was measured:
hERG channel = hERG channel (Homo sapiens (Human), UniProt Q12809); assay: hERG inhibition assay (manual patch-clamp, HEK 293 cells); assay type: cell-based; conditions: HEK 293 cells stably transfected with hERG, read-out: CardioSafety (hERG IC50)
Text: The human ether-a-go-go related gene (hERG) encodes the inward rectifying voltage gated potassium channel in the heart (IKr) which is involved in cardiac repolarisation. […] IKr current inhibition accounts for the vast majority of known cases of drug-induced QT-prolongation. A number of drugs have been withdrawn from late stage clinical trials due to these cardiotoxic effects, therefore it is important to identify inhibitors early in drug discovery.
The hERG inhibition study aims at quantifying the in vitro effects of compounds of the invention on the potassium-selective IKr current generated in normoxic conditions in stably transfected HEK 293 cells with the human ether-a-go-go-related gene (hERG).
Whole-cell currents (acquisition by manual patch-clamp) elicited during a voltage pulse were recorded in baseline conditions and following application of tested compounds (5 minutes of exposure). The concentrations of tested compounds (0.3 μM; 3 μM; 10 μM; 30 μM) reflect a range believed to exceed the concentrations at expected efficacy doses in preclinical models. […]
The current density recorded were normalized against the baseline conditions and corrected for solvent effect and time-dependent current run-down using experimental design in test compound free conditions. […]

plasma protein = assay: Determination of plasma protein binding (rapid equilibrium dialysis); assay type: in vitro ADME; conditions: 4 hours at 37° C.
Text: Determination of Plasma Protein Binding
The pharmacokinetic and pharmacodynamic properties of chemicals/drugs are largely a function of the reversible binding of chemicals to plasma or serum proteins. Generally, only the unbound or “free fraction” of a drug is available for diffusion or transport across cell membranes, and for interaction with a pharmacological/toxicological target. Consequently, the extent of the plasma protein binding (PPB) of a compound influences its action as well as its distribution and elimination.
The determination of plasma protein binding (PPB) of a compound is enabled by equilibrium dialysis, an accepted and standard method for reliable estimation of the non-bound drug fraction in plasma. RED (Rapid Equilibrium Dialysis) device insert is made of two side-by-side chambers separated by an O-ring-sealed vertical cylinder of dialysis membrane (MWCO˜8,000). Plasma containing drug (at 5 μM or blood concentrations otherwise corresponding to efficacious doses, if known) is added to one chamber while buffer is added to the second. After 4 hours incubation at 37° C. under shaking, an aliquot is removed from each chamber and analyzed by a LC-MS/MS procedure enables the determination of both free and bound drug.
The percentages provided in Table 4 represent for the compounds of the invention the bound drug fraction to the plasma protein. The “free fraction” may be calculated as 100%−% rPPB (i.e. the complementary percentage of that disclosed in Table 4, corresponding to the drug concentration that is unbound and therefore available to engage biological target and elicit pharmacological activity).

human NK-3 receptor = human NK-3 receptor (Homo sapiens (Human), UniProt P29371); assay: 3H-SB222200 binding competition assay with human NK-3 receptor
Protocol: The affinity of compounds of the invention for the human NK-3 receptor was determined by measuring the ability of compounds of the invention to competitively and reversibly displace a well-characterized NK-3 radioligand in a concentration-dependent manner.
^3H-SB222200 Binding Competition Assay with Human NK-3 Receptor
The ability of compounds of the invention to inhibit the binding of the NK-3 receptor selective antagonist ^3H-SB222200 was assessed by an in vitro radioligand binding assay. Membranes were prepared from Chinese hamster ovary recombinant cells stably expressing the human NK-3 receptor. The membranes were incubated with 5 nM ^3H-SB222200 (ARC) in a HEPES 25 mM/NaCl 0.1M/CaCl2 1 mM/MgCl2 5 mM/BSA 0.5%/Saponin 10 μg/ml buffer at pH 7.4 and various concentrations of compounds of the invention. The amount of ^3H-SB222200 bound to the receptor was determined after filtration by the quantification of membrane associated radioactivity using the TopCount-NXT reader (Packard).

human NK-2 receptor = human NK-2 receptor (Homo sapiens (Human), UniProt P21452); assay: Selectivity binding assay, human NK-2 ([125I]-Neurokinin A); conditions: CHO cell membranes; 0.1 nM [125I]-Neurokinin A; read-out: hNK-2 (Ki)
Protocol: Selectivity of the compounds of the invention was determined over the other human NK receptors, namely NK-1 and NK-2 receptors.
The affinity of compounds of the invention for the NK-2 receptor was evaluated in CHO recombinant cells which express the human NK-2 receptor. Membrane suspensions were prepared from these cells. The following radioligand [^125I]-Neurokinin A (PerkinElmer Cat#NEX252) was used in this assay. Binding assays were performed in a 25 mM HEPES/1 mM CaCl2/5 mM MgCl2/0.5% BSA/10 μg/ml saponin, at pH 7.4. Binding assays consisted of 25 μl of membrane suspension (approximately 3.75 μg of protein/well in a 96 well plate), 50 μl of compound or reference ligand (Neurokinin A) at increasing concentrations (diluted in assay buffer) and 0.1 nM [^125I]-Neurokinin A. The plate was incubated 60 min at 25° C. in a water bath and then filtered over GF/C filters (Perkin Elmer, 6005174, presoaked in assay buffer without saponine for 2 h at room temperature) with a Filtration unit (Perkin Elmer). The radioactivity retained on the filters was measured by using the TopCount-NXT reader (Packard). Competition curves were obtained for compounds of the invention and the concentrations of compounds which displaced 50% of bound radioligand (IC50) were determined and then apparent inhibition constant Ki values were calculated by the following equation: Ki=IC50/(1+[L]/KD) where [L] is the concentration of free radioligand and KD is its dissociation constant at the receptor, derived from saturation binding experiments (Cheng and Prusoff, 1973).

[1] = CHO cell membranes, 5 nM 3H-SB222200, Table 2, read-out: Competitive binding assay with human NK-3 receptor hNK-3 (Ki)
[2] = Table 3 (selectivity table), read-out: hNK-3 (Ki)

Chain of human NK-3 receptor (P29371 whole entry): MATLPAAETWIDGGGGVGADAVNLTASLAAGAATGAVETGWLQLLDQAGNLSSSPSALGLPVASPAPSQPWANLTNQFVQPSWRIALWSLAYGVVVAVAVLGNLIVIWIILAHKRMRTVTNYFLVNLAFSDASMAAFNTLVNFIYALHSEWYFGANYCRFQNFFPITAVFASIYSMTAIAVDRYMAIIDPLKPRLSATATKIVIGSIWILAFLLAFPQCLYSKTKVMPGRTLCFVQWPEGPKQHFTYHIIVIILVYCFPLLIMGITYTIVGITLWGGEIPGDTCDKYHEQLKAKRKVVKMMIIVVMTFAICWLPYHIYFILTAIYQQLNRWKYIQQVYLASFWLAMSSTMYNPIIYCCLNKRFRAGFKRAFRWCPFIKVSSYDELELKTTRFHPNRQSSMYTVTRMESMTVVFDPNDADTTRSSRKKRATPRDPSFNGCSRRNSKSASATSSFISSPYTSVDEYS
Chain of human NK-2 receptor (P21452 whole entry): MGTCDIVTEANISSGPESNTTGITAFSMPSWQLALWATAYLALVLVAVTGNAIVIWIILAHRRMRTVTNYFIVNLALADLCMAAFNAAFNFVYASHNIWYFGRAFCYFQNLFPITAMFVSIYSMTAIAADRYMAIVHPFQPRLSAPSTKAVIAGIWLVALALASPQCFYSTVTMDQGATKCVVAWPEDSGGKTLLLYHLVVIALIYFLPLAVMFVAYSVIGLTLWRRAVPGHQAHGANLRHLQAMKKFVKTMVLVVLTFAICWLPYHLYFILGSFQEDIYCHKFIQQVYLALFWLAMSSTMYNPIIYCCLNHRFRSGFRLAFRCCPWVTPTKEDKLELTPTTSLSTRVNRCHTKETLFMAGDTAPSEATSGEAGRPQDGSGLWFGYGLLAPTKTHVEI
Chain of hERG channel (Q12809 whole entry): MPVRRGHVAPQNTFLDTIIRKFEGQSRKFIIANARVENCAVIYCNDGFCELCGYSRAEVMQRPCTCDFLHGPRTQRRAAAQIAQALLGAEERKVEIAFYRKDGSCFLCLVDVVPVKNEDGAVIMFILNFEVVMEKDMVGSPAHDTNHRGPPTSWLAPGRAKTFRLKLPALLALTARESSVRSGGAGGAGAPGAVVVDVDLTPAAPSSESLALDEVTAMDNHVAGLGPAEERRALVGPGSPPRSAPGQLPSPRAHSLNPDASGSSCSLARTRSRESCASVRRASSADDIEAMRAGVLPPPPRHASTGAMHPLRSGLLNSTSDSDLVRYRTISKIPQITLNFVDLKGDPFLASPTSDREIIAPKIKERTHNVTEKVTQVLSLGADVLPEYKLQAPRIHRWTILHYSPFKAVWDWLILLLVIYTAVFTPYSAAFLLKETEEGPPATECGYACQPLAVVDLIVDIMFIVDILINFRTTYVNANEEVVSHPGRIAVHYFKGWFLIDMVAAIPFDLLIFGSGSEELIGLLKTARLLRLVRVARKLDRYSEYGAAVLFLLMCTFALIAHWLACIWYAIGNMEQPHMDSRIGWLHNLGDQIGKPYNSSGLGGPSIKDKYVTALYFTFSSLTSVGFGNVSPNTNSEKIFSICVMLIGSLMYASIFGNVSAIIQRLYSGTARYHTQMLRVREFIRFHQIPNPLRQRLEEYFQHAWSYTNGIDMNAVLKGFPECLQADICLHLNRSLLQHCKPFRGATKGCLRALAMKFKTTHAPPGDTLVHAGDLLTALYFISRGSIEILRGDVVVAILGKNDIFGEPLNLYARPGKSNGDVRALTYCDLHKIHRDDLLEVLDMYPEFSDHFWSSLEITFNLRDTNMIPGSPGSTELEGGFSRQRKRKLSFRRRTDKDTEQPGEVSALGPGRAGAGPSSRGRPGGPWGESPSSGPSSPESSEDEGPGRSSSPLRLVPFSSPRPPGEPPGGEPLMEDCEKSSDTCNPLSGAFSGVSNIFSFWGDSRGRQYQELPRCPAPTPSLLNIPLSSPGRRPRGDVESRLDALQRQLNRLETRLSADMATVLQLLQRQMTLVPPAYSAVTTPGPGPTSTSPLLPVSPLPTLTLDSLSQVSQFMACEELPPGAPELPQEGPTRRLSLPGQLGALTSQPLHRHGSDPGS

| Compound | IC50 (hERG channel) | Exposure (% rPPB), bound drug fraction to the plasma protein (plasma protein) | Ki (human NK-3 receptor; [1]) | Ki (human NK-3 receptor; [2]) | Ki (human NK-2 receptor) |
| --- | --- | --- | --- | --- | --- |
| Cc1ccc(-c2nnc3n2CCN(C(=O)c2ccc(F)cc2)[C@@H]3C)o1 [Compound 1, (R)-(4-fluorophenyl)(8-methyl-3-(5-methylfuran-2-yl)-5,6-dihydro-[1,2,4]triazolo[4,3-a]pyrazin-7(8H)-yl)methanone] | 31 µM | 28% | 0.048 µM | 0.048 µM | 52 µM |
| C[C@@H]1c2nnc(-c3csc(C(F)(F)F)n3)n2CCN1C(=O)c1ccc(F)cc1 [Compound 3, (R)-(4-fluorophenyl)(8-methyl-3-(2-(trifluoromethyl)thiazol-4-yl)-5,6-dihydro-[1,2,4]triazolo[4,3-a]pyrazin-7(8H)-yl)methanone] | 70 µM | 50% | 0.022 µM | 0.022 µM | 6.6 µM |
